Test results reported in patent US20060063930A1, “Compositions and methods comprising proteinase activated receptor antagonists” (priority 2004, published 2006).
Counter-ions that a name gives are not always drawn.

Each compound was assayed on PAR-2 (assay: Inhibition of PAR-2 activating peptide (AP2) calcium signaling in cells pretreated with antagonist). Conditions: mimetic antagonists; AUC of calcium mobilization treated/control; initially screened at 1 mM compound.
Type: cell-based, human
Design: key to PAR-2 AP2 Signaling Treated/Control (T/C) / PAR-2 AP2 Signaling Treated/Control: AUC of calcium mobilization, treated ÷ control wells
Experimental: In order to assess the potential of peptides and molecules selected above to block PAR-2 signaling, cells were pretreated with potential antagonist peptides for a predetermined amount of time and were subsequently treated with various GPCR agonists. Confluent Lewis lung carcinoma (LLC) cells were loaded for 30-60 minutes with the fluorescent dye Fluo-4. Final concentration 4 uM Fluo-4, 0.02% pluronic acid in physiological buffer. Cells were then washed with assay buffer, (HBSS containing 1 mM CaCl2, 1 mM MgSO4, and 2.5 mM probenecid). Cells were stimulated with various doses of PAR-2 activating peptide, PAR-1 activating peptide or ATP. Fluorescence was monitored using a Wallac 1470 fluorescent plate reader. (See Al-ani et. al Journal of Pharmacology and Experimental Therapeutics 290:2, 753-760). Additional compound screening was performed using U87-MG human glioma cells. In this assay cells were labeled with FLIPR Calcium 3 dye (Component A), which was dissolved in 10 mls of Assay Buffer without Probenecid. Loading buffer was prepared by diluting Component A with an additional 90 mls of Assay Buffer without Probenecid, giving a total volume of a 100 ml. For plate loading, 11 mls of FLIPR Calcium 3 dye (Component A) is placed into a 15 ml conical tube+110 μl of 250 mM Probenecid, at a final in-well working volume of 2.5 mM. Finally, 50 μl of Calcium 3 dye was added wells containing 100 μl media, and incubated 1 hr, 37° C., 5% CO2. Calcium signaling was then measured using a Flexstation II (Molecular Devices) following manufacturer's instructions.
Potential antagonist compounds were initially screened at 1 mM compound concentration. Those compounds with activity were then subjected to additional confirmatory testing. Activity is reported as treated/controlled (T/C) where the area under the curve (AUC) of calcium mobilization plots in treated wells is divided by the AUC of calcium mobilization plots in control wells to generate a measure of inhibition.

SMILES	PAR-2 AP2 Signaling Treated/Control
Cl.NC1CCC(C(=O)Nc2ccc(NC(=O)CC3CCCCC3)cc2)C1 (stereo in doubt) [ENMD-1768, (1R,3S)-N-(4-(2-cyclohexylacetamido)phenyl)-3-aminocyclopentanecarboxamide hydrochloride]	0.10
CCC(C)C(=O)N1CCN(C(=O)CCCCCN)CC1 (centres unmarked) [ENMD-1033, N′-[S-2-methylbutanoyl]-N^4-[6′-aminohexanoyl]-piperazine]	0.28
CC[C@@H](C)C(=O)N1CCN(C(=O)CCCCCN)CC1 [ENMD-1034, N^1-[R-2-methylbutanoyl]-N^4-[6′-aminohexanoyl]-piperazine]	0.39
CC(C)C(=O)N1CCN(C(=O)CCCCCN)CC1 [ENMD-1035, N′-[2′-methylpropanoyl]-N^4-[6′-aminohexanoyl]-piperazine]	0.32
CCCC(=O)N1CCN(C(=O)CCCCCN)CC1 [ENMD-1036, N^1-butanoyl-N-4-[6′-aminohexanoyl]-piperazine]	0.55
CCC(=O)N1CCN(C(=O)CCCCCN)CC1 [ENMD-1037, N′-propanoyl-N-4-[6′-aminohexanoyl]-piperazine]	0.55
CC(C)CCCC(=O)N1CCN(C(=O)CCCCCN)CC1 [ENMD-1038, N^1-[5′-methylhexanoyl]-N^4-[6′-aminohexanoyl]-piperazine]	0.35
CCCCCC(=O)N1CCN(C(=O)CCCCCN)CC1 [ENMD-1039, N^1-hexanoyl-N^4-[6-aminohexanoyl]-piperazine]	1.34
CCCCC(=O)N1CCN(C(=O)CCCCCN)CC1 [ENMD-1040, N^1-pentanoyl-N-4-[6′-aminohexanoyl]-piperazine]	1.04
CC(C)CCC(=O)N1CCN(C(=O)CCCCCN)CC1 [ENMD-1041, N^1-[4′-methylpentanoyl]-N^4-[6′-aminohexanoyl]-piperazine]	0.17
CC(C)CC(=O)N1CCN(C(=O)Cc2ccc(N)cc2)CC1 [ENMD-1065, N^1-3-methylbutyryl-N^4-[2-(4-aminophenyl)-ethanoyl]-piperazine]	0.34
CC(C)CC(=O)N1CCN(C(=O)Cc2cnc[nH]2)CC1 [ENMD-1066, 1-(4-(2-(1H-imidazol-4-yl)acetyl)piperazin 1-yl)-3-methylbutan-1-amide hydrochloride]	0.20
CC(C)CC(=O)N1CCN(C(=O)CCCCCNC(=N)N)CC1 [ENMD-1067, 4-(3-methylbutanoyl)piperazin-1-(5′-carbamoyl-pentylguanidine)]	0.77
O=C(Cc1ccccn1)N1CCN(C(=O)CC2CCCCC2)CC1 [ENMD-1069, 1-(4-(2-cyclohexylacetyl)piperazin-1-yl)-2-(pyridin-2-yl)-acetaldehyde]	0.94
Nc1ccc(CC(=O)N2CCN(C(=O)CC3CCCCC3)CC2)cc1 [ENMD-1070, N^1-2-cyclohexylethanoyl-N^4-[2-(4-aminophenyl)-ethanoyl]-piperazine]	0.05
O=C(Cc1cnc[nH]1)N1CCN(C(=O)CC2CCCCC2)CC1 [ENMD-1071, 1-(4-(2-(1H-imidazol-4-yl)acetyl)piperazin-1-yl)-1-cyclohexyl-acetamide hydrochloride]	0.16
N=C(N)NCCCCCC(=O)N1CCN(C(=O)CC2CCCCC2)CC1 [ENMD-1072, 4-(1-cyclohexylacetyl)piperazin-1-(5′-carbamoyl-pentylguanidine)]	0.56
NCCCCCC(=O)N1CCN(C(=O)CC2CCCCC2)CC1 [ENMD-1073, N′-(2-cyclohexylethanoyl)-N^4-(6-aminohexanoyl)piperazine]	0.56
O=C(Cc1cccnc1)N1CCN(C(=O)CC2CCCCC2)CC1 [ENMD-1074, 1-(4-(2-cyclohexylacetyl)piperazin-1-yl)-2-(pyridin-3-yl)-acetaldehyde]	0.35
Nc1ccc(CC(=O)N2CCN(C(=O)Cc3ccccc3)CC2)cc1 [ENMD-1075, N^1-2-phenylethanoyl-N^4-[2-(4-aminophenyl)-ethanoyl]-piperazine]	0.71
O=C(Cc1ccccc1)N1CCN(C(=O)Cc2cnc[nH]2)CC1 [ENMD-1076, 1-(4-(2-(1H-imidazol-4-yl)acetyl)piperazin-1-yl)-1-benzyl-amide]	0.14

SMILES	PAR-2 AP2 Signaling Treated/Control
N=C(N)NCCCCCC(=O)N1CCN(C(=O)Cc2ccccc2)CC1 [ENMD-1077, 4-phenylacetoyl-piperazin-1-(5′-carbamoyl-pentylguanidine)]	0.80
NCCCCCC(=O)N1CCN(C(=O)Cc2ccccc2)CC1 [ENMD-1078, N^1-(2-phenylethanoyl)-N^4-(6-aminohexanoyl)piperazine]	0.42
O=C(Cc1ccncc1)N1CCN(C(=O)CC2CCCCC2)CC1 [ENMD-1079, 1-(4-(2-cyclohexylacetyl)piperazin-1-yl)-2-(pyridin-4-yl)-acetaldehyde]	0.90
CC(C)CC(=O)Nc1ccc(NC(=O)CCCCCN)cc1 [ENMD-1391, N-(4-(3-methylbutanamido)phenyl)-6-aminohexanamide]	0.01
Br.CC(C)CC(=O)NCCNC(=O)CCCCCN [ENMD-1393, N-(2-(3-methylbutanamido)ethyl)-6-aminohexan-amide hydrobromide]	0.81
CC(C)CC(=O)Nc1ccc(NC(=O)CCCN)cc1 [ENMD-1397, N-(4-(3-methylbutanamido)phenyl)-4-aminobutyl-amide hydrobromide]	0.15
COC(=O)CCCCC(=O)N1CCN(C(=O)CC(C)C)CC1 [ENMD-1402, Methyl 6-(4-(3-methylbutanoyl)piperazin-1-yl)-6-oxohexanoate]	0.64
CC(C)COc1ccc(C(=O)NCCCCN)cc1 [ENMD-1405, N-(4-aminobutyl)-4-isobutoxy-benzamide]	0.13
NCCCCNC(=O)c1ccc(OCC2CCCCC2)cc1 [ENMD-1406, N-(4-aminobutyl)-4-(cyclohexylmethoxy)-benzamide]	0.24
CC(C)COc1ccc(C(=O)NCCCN)cc1 [ENMD-1408, N-(3-aminopropyl)-4-isobutoxy-benzamide]	0.35
NCCCNC(=O)c1ccc(OCC2CCCCC2)cc1 [ENMD-1409, N-(3-aminopropyl)-4-(cyclohexylmethoxy)-benzamide]	0.45
CC(C)CNC(=O)c1ccc(OCCCN)cc1 [ENMD-1410, 4-(3-aminopropoxy)-N-isobutyl-benzamide]	0.55
NCCCOc1ccc(C(=O)NCC2CCCCC2)cc1 [ENMD-1411, 4-(3-aminopropoxy)-N-(cyclohexylmethyl)-benzamide]	0.43
CC(C)CC(=O)NCCNC(=O)Cc1ccc(N)cc1.Cl [ENMD-1416, N-(2-(2-(4-aminophenyl)acetamido)ethyl)-3-methylbutan-amide hydrochloride]	0.48
NCCCCCC(=O)NCCNC(=O)CC1CCCCC1 [ENMD-1417, N-(2-(2-cyclohexylacetamido)ethyl)-6-aminohexan-amide]	0.38
CC(C)CNC(=O)[C@@H]1CC[C@@H](NC(=O)CCCCCN)C1 [ENMD-1504, N-isobutyl-3R-(6-aminohexanamido)-cyclopentane-1R-carboxamide]	0.71
NCCCCCC(=O)N[C@@H]1CC[C@H](C(=O)NCC2CCCCC2)C1 [ENMD-1505, N-cyclohexylmethyl-3S-(6-aminohexanamido)-cyclopentane-1R-carboxamide]	0.19
NCCCCNC(=O)c1ccc(CCC2CCCCC2)cc1 [ENMD-1509, N-(4-aminobutyl)-4-(2-cyclohexylethyl)-benzamide]	0.71
NCCCCNC(=O)c1ccc(NC(=O)C2CCCCC2)cc1 [ENMD-1511, N-(4-aminobutyl)-4-(cyclohexanecarboxamido)-benzamide hydrochloride]	0.13
NCCCCCC(=O)NC1CN(C(=O)CC2CCCCC2)C1 [ENMD-1513, N-[1-(2-cyclohexylacetyl)azetidin-3-yl]-6-aminohexanamide]	0.97
